# Experimental data from patent US10464922B2, “Metalloenzyme inhibitor compounds” (NQP 1598 LTD., priority 2015, dated 2019).
# Like-named read-outs stand apart in the source and are kept apart here.
# Experiments:
# A. fumigatus = A. fumigatus MIC at 100% growth inhibition (CLSI M38-A2); assay type: cell-based, Aspergillus fumigatus; settings: for MIC: Aspergillus fumigatus, read-out: Aspergillus fumigatus MIC
# Procedure: A. fumigatus MICs were determined at 100% growth inhibition following CLSI guidelines at a concentration range of 8-0.0078 μg/mL (CLSI M38-A2).
# C. albicans (ATCC 90028) = assay: Minimum inhibitory concentration, in vitro broth microdilution assay (CLSI M27-A2); assay type: cell-based, Candida albicans; settings: Candida albicans, ATCC90028, 48 h, read-out: Candida albicans MIC
# Summary of the method: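 CLSI M27-A2 broth microdilution: 11 two-fold DMSO dilutions into RPMI-1640+MOPS with 1×10^3–1×10^4 CFU/mL, 2 percent DMSO final. Incubated 2 days at 36° C; MIC from visual growth scoring, duplicates.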
# [1] = 100% growth inhibition, range tested 8-0.0078 μg/mL, values given as ranges
# [2] = ATCC 90028, about 50% growth reduction, 2 days at 36° C., range tested 8-0.0078 μg/mL, values given as ranges
MIC (A. fumigatus; [1]),MIC (C. albicans (ATCC 90028); [2]),Aspergillus fumigatus MIC (A. fumigatus; [1]),SMILES,MIC (A. fumigatus),MIC (C. albicans (ATCC 90028))
0.25 to 1 µg/mL,0.1 to 1 µg/mL,–,"O=Cc1ccc(N2CCN(c3ccc(-c4ccc(C(F)(F)[C@](O)(Cn5cnnn5)c5ccc(F)cc5F)nc4)cc3)CC2)cn1 [Example 32, (R)-5-(4-(4-(6-(2-(2,4-difluorophenyl)-1,1-difluoro-2-hydroxy-3-(1H-tetrazol-1-yl)propyl)pyridin-3-yl)phenyl)piperazin-1-yl) picolinaldehyde]",–,–
1 to 4 µg/mL,0.0078 to 0.01 µg/mL,–,"N#Cc1ccc(CN2CCN(c3ccc(-c4ccc(C(F)(F)[C@](O)(Cn5cnnn5)c5ccc(F)cc5F)nc4)cc3)CC2)cc1 [Example 17, (R)-4-((4-(4-(6-(2-(2,4-difluorophenyl)-1,1-difluoro-2-hydroxy-3-(1H-tetrazol-1-yl)propyl)pyridin-3-yl)phenyl)piperazin-1-yl)methyl) benzonitrile]",–,–
0.25 to 1 µg/mL,0.0078 to 0.01 µg/mL,–,"OC(c1cc(F)cc(N2CCN(c3ccc(-c4ccc(C(F)(F)[C@](O)(Cn5cnnn5)c5ccc(F)cc5F)nc4)cc3)CC2)c1)C(F)(F)F (stereo partly drawn) [Example 100, (2R)-2-(2,4-difluorophenyl)-1,1-difluoro-1-(5-(4-(4-(3-fluoro-5-(2,2,2-trifluoro-1-hydroxyethyl)phenyl)piperazin-1-yl)phenyl)pyridin-2-yl)-3-(1H-tetrazol-1-yl) propan-2-ol]",–,–
0.25 to 1 µg/mL,0.0078 to 0.01 µg/mL,–,"CC(C)C(C)C(O)c1ccc(N2CCN(c3ccc(-c4ccc(C(F)(F)[C@](O)(Cn5cnnn5)c5ccc(F)cc5F)nc4)cc3)CC2)cn1 (stereo partly drawn) [Example 68, 1-(5-(4-(4-(6-((R)-2-(2,4-difluorophenyl)-1,1-difluoro-2-hydroxy-3-(1H-tetrazol-1-yl)propyl)pyridin-3-yl)phenyl)piperazin-1-yl)pyridin-2-yl)-2,3-dimethylbutan-1-ol]",–,–
–,–,–,"NC(CC(F)(F)F)C(=O)Nc1ccc(N2CCN(c3ccc(-c4ccc(C(F)(F)[C@](O)(Cn5cnnn5)c5ccc(F)cc5F)nc4)cc3)CC2)cc1 (stereo partly drawn) [Example 88, 2-amino-N-(4-(4-(4-(6-((R)-2-(2,4-difluorophenyl)-1,1-difluoro-2-hydroxy-3-(1H-tetrazol-1-yl)propyl)pyridin-3-yl)phenyl)piperazin-1-yl)phenyl)-4,4,4-trifluorobutanamide]",> 8 µg/mL,0.01 to 0.1 µg/mL
0.25 to 1 µg/mL,0.0078 to 0.01 µg/mL,–,"CC(C)C(O)c1ccc(N2CCN(c3ccc(-c4ccc(C(F)(F)[C@](O)(Cn5cnnn5)c5ccc(F)cc5F)nc4)cc3)CC2)cc1 (stereo partly drawn) [Example 40, 1-(4-(4-(4-(6-((R)-2-(2,4-difluorophenyl)-1,1-difluoro-2-hydroxy-3-(1H-tetrazol-1-yl)propyl)pyridin-3-yl)phenyl)piperazin-1-yl)phenyl)-2-methylpropan-1-ol]",–,–
0.25 to 1 µg/mL,0.0078 to 0.01 µg/mL,–,"CC(C)n1ccn(-c2ccc(N3CCN(c4ccc(-c5ccc(C(F)(F)[C@](O)(Cn6cnnn6)c6ccc(F)cc6F)nc5)cc4)CC3)cc2)c1=O [Example 91, 1-(4-(4-(4-(6-(2-(2,4-difluorophenyl)-1,1-difluoro-2-hydroxy-3-(1H-tetrazol-1-yl)propyl)pyridin-3-yl)phenyl)piperazin-1-yl)phenyl)-3-isopropyl-1,3-dihydro-2H-imidazol-2-one]",–,–
0.25 to 1 µg/mL,0.0078 to 0.01 µg/mL,–,"OC(c1cc(N2CCN(c3ccc(-c4ccc(C(F)(F)[C@](O)(Cn5cnnn5)c5ccc(F)cc5F)nc4)cc3)CC2)ccn1)C(F)(F)F (stereo partly drawn) [Example 104, (2R)-2-(2,4-difluorophenyl)-1,1-difluoro-3-(1H-tetrazol-1-yl)-1-(5-(4-(4-(2-(2,2,2-trifluoro-1-hydroxyethyl)pyridin-4-yl)piperazin-1-yl)phenyl)pyridin-2-yl)propan-2-ol]",–,–
0.25 to 1 µg/mL,0.0078 to 0.01 µg/mL,–,"CC(C)CC(O)c1ccc(N2CCN(c3ccc(-c4ccc(C(F)(F)[C@](O)(Cn5cnnn5)c5ccc(F)cc5F)nc4)cc3)CC2)cc1 (stereo partly drawn) [Example 41, 1-(4-(4-(4-(6-((R)-2-(2,4-difluorophenyl)-1,1-difluoro-2-hydroxy-3-(1H-tetrazol-1-yl)propyl)pyridin-3-yl)phenyl)piperazin-1-yl)phenyl)-3-methylbutan-1-ol]",–,–
> 8 µg/mL,0.01 to 0.1 µg/mL,–,"Nc1ccc(N2CCN(c3ccc(-c4ccc(C(F)(F)[C@](O)(Cn5cnnn5)c5ccc(F)cc5F)nc4)cc3)CC2)cc1 [Example 14, (R)-1-(5-(4-(4-(4-aminophenyl)piperazin-1-yl)phenyl)pyridin-2-yl)-2-(2,4-difluorophenyl)-1,1-difluoro-3-(1H-tetrazol-1-yl) propan-2-ol]",–,–
–,0.0078 to 0.01 µg/mL,0.25 to 1.0 µg/mL,"OC(CC(F)(F)F)c1ccc(N2CCN(c3ccc(-c4ccc(C(F)(F)[C@](O)(Cn5cnnn5)c5ccc(F)cc5F)nc4)cc3)CC2)cn1 (stereo partly drawn) [Example 13, 1-(5-(4-(4-(6-((R)-2-(2,4-difluorophenyl)-1,1-difluoro-2-hydroxy-3-(1H-tetrazol-1-yl)propyl)pyridin-3-yl)phenyl)piperazin-1-yl)pyridin-2-yl)-3,3,3-trifluoropropan-1-ol]",–,–
0.25 to 1 µg/mL,0.0078 to 0.01 µg/mL,–,"Cn1c(N2CCN(c3ccc(-c4ccc(C(F)(F)[C@](O)(Cn5cnnn5)c5ccc(F)cc5F)nc4)cc3)CC2)nc2ccc(C#N)cc21 [Example 79, (R)-2-(4-(4-(6-(2-(2,4-difluorophenyl)-1,1-difluoro-2-hydroxy-3-(1H-tetrazol-1-yl)propyl)pyridin-3-yl)phenyl)piperazin-1-yl)-1-methyl-1H-benzo [d] imidazole-6-carbonitrile]",–,–
0.062 to 0.25 µg/mL,0.01 to 0.1 µg/mL,–,"Cn1ncn(-c2ccc(N3CCN(c4ccc(-c5ccc(C(F)(F)[C@](O)(Cn6cnnn6)c6ccc(F)cc6F)nc5)cc4)CC3)cc2)c1=O [Example 53, (R)-4-(4-(4-(4-(6-(2-(2,4-difluorophenyl)-1,1-difluoro-2-hydroxy-3-(1H-tetrazol-1-yl)propyl)pyridin-3-yl)phenyl)piperazin-1-yl)phenyl)-2-methyl-2,4-dihydro-3H-1,2,4-triazol-3-one]",–,–
> 8 µg/mL,0.0078 to 0.01 µg/mL,–,"N#Cc1ccc(N2CCN(C(=O)c3ccc(-c4ccc(C(F)(F)[C@](O)(Cn5cnnn5)c5ccc(F)cc5F)nc4)cc3)CC2)cc1 [Example 19, (R)-4-(4-(4-(6-(2-(2,4-difluorophenyl)-1,1-difluoro-2-hydroxy-3-(1H-tetrazol-1-yl)propyl)pyridin-3-yl)benzoyl)piperazin-1-yl) benzonitrile]",–,–
> 8 µg/mL,0.01 to 0.1 µg/mL,–,"N#Cc1ccc(N2CCN(Cc3ccc(-c4ccc(C(F)(F)[C@](O)(Cn5cnnn5)c5ccc(F)cc5F)nc4)cc3)C(=O)C2)cc1 [Example 27, (R)-4-(4-(4-(6-(2-(2,4-difluorophenyl)-1,1-difluoro-2-hydroxy-3-(1H-tetrazol-1-yl)propyl)pyridin-3-yl)benzyl)-3-oxopiperazin-1-yl) benzonitrile]",–,–
0.25 to 1 µg/mL,0.0078 to 0.01 µg/mL,–,"OC(c1ccc(N2CCN(c3ccc(-c4ccc(C(F)(F)[C@](O)(Cn5cnnn5)c5ccc(F)cc5F)nc4)cc3)CC2)cc1)C(F)(F)F (stereo partly drawn) [Example 3, (2R)-2-(2,4-difluorophenyl)-1,1-difluoro-3-(1H-tetrazol-1-yl)-1-(5-(4-(4-(4-(2,2,2-trifluoro-1-hydroxyethyl)phenyl)piperazin-1-yl)phenyl)pyridin-2-yl) propan-2-ol]",–,–
0.25 to 1 µg/mL,0.0078 to 0.01 µg/mL,–,"CC(C)(C)C(O)c1ccc(N2CCN(c3ccc(-c4ccc(C(F)(F)[C@](O)(Cn5cnnn5)c5ccc(F)cc5F)nc4)cc3)CC2)cc1 (stereo partly drawn) [Example 43, 1-(4-(4-(4-(6-((R)-2-(2,4-difluorophenyl)-1,1-difluoro-2-hydroxy-3-(1H-tetrazol-1-yl)propyl)pyridin-3-yl)phenyl)piperazin-1-yl)phenyl)-2,2-dimethylpropan-1-ol]",–,–
0.25 to 1 µg/mL,0.0078 to 0.01 µg/mL,–,"N#Cc1ccc(N2CCN(c3ccc(-c4ccc(C(F)(F)[C@](O)(Cn5cnnn5)c5ccc(F)cc5F)nc4)cc3)CC2)c(F)c1 [Example 11, (R)-4-(4-(4-(6-(2-(2,4-difluorophenyl)-1,1-difluoro-2-hydroxy-3-(1H-tetrazol-1-yl)propyl)pyridin-3-yl)phenyl)piperazin-1-yl)-3-fluorobenzonitrile]",–,–
0.25 to 1 µg/mL,0.0078 to 0.01 µg/mL,–,"CCC(c1nc2cc(N3CCN(c4ccc(-c5ccc(C(F)(F)[C@](O)(Cn6cnnn6)c6ccc(F)cc6F)nc5)cc4)CC3)ccc2[nH]1)C(C)O (stereo partly drawn) [Example 71, 3-(5-(4-(4-(6-((R)-2-(2,4-difluorophenyl)-1,1-difluoro-2-hydroxy-3-(1H-tetrazol-1-yl)propyl)pyridin-3-yl)phenyl)piperazin-1-yl)-1H-benzo [d]imidazol-2-yl)pentan-2-ol]",–,–
> 8 µg/mL,0.01 to 0.1 µg/mL,–,"CC(C)Cc1nc2ccc(N3CCN(c4ccc(-c5ccc(C(F)(F)[C@](O)(Cn6cnnn6)c6ccc(F)cc6F)nc5)cc4)CC3)cc2[nH]1 [Example 78, (R)-2-(2,4-difluorophenyl)-1,1-difluoro-1-(5-(4-(4-(2-isobutyl-1H-benzo [d]imidazol-6-yl)piperazin-1-yl)phenyl)pyridin-2-yl)-3-(1H-tetrazol-1-yl) propan-2-ol]",–,–
0.25 to 1 µg/mL,0.0078 to 0.01 µg/mL,–,"CCC(C(C)O)n1ccn(-c2ccc(N3CCN(c4ccc(-c5ccc(C(F)(F)[C@](O)(Cn6cnnn6)c6ccc(F)cc6F)nc5)cc4)CC3)cc2)c1=O (stereo partly drawn) [Example 97, 1-(4-(4-(4-(6-((R)-2-(2,4-difluorophenyl)-1,1-difluoro-2-hydroxy-3-(1H-tetrazol-1-yl)propyl)pyridin-3-yl)phenyl)piperazin-1-yl)phenyl)-3-(2-hydroxypentan-3-yl)-1,3-dihydro-2H-imidazol-2-one]",–,–
